The values below come from patent publication US20160243011A1, “Formulations Comprising Idebenone, N-Acetyl-S-Farnesyl-L-Cysteine and Ergothioneine and Uses Thereof” (ELIZABETH ARDEN, INC., priority 2012, published 2016).

One assay concerns TNFα. The experiment in a line: UVB induced TNFα release in NHEKs (ELISA). In kind it is cell-based. Conditions: Homo sapiens, light or radiation study; Compound (0.1 μM); NHEK, UVB 25 mJ/cm^2, medium assayed 24 h later; read-out: TNFα (% inhibited).
For another assay, the system named is IL-6. Description: UVB induced IL-6 release in NHEKs (ELISA). In kind it is cell-based. The conditions noted are these: Homo sapiens, light or radiation study; Compound (0.1 μM); NHEK, UVB 25 mJ/cm^2, medium assayed 24 h later; read-out: IL-6 (% inhibited). In general terms: In an ELISA, binding on a coated surface is turned into a signal by an enzyme label.

For the molecule `CC(=O)N[C@@H](CSC/C=C(\C)CC/C=C(\C)CCC=C(C)C)C(=O)O` [Arazine ™, N-acetyl-S-farnesyl-L-cysteine], the values for the inhibition at 0.1 µM in the assay with TNFα and in the assay with IL-6 were 33% and 28%, respectively.
For the molecule `C[N+](C)(C)C(Cc1c[nH]c(=S)[nH]1)C(=O)O` (stereo not drawn) [Ergothioneine, 3-(2-sulfanylidene-1,3-dihydroimidazol-4-yl)-2-(trimethylazaniumyl)propanoate], the inhibition at 0.1 µM in the assay with TNFα was 35%; in the assay on IL-6, 12%.
With `COC1=C(OC)C(=O)C(CCCCCCCCCCO)=C(C)C1=O` [Idebenone], the values for the inhibition at 0.1 µM in the assay with TNFα and with IL-6 were 47% and 15%, respectively.
